According to ChEMBL document CHEMBL1131262, “Comprehensive study on structure-activity relationships of rifamycins: discussion of molecular and crystal structure and spectroscopic and thermochemical properties of rifamycin O” (J Med Chem, 1998):
In brackets after ≈: the same amount, converted by molar mass. Activity calls are given as the source filed them. The calls are words filed in the database; no cut-off is given here.

Key:
Escherichia coli [1] = test: The compound is evaluated for inhibitory concentration against Escherichia coli and is expressed as minimum inhibitory concentration (MIC); active; assay type: functional, organism-based
Nucleic Acid [2] = test: Inhibitory concentration against DNA dependent RNA polymerase in Escherichia coli; assay type: nucleic-acid assay
Escherichia coli [3] = test: The compound is evaluated for inhibitory concentration against Escherichia coli and is expressed as minimum inhibitory concentration (MIC).; assay type: functional
Nucleic Acid [4] = test: Inhibitory concentration against DNA dependent RNA polymerase in E. coli; Non active; assay type: nucleic-acid assay, Escherichia coli
Escherichia coli [5] = test: The compound is evaluated for inhibitory concentration against Escherichia coli and is expressed as minimum inhibitory concentration (MIC); Non active; assay type: functional, organism-based
[6] = Escherichia coli, read-out: MIC

SMILES | IC50 (Nucleic Acid [2]) | IC50 (Nucleic Acid [4]) | MIC (Escherichia coli [5]) | also measured
COC1/C=C/OC2(C)Oc3c(C)c(O)c4c(c3C2=O)-c2[n-]c3ccc(Br)c[n+]3c2/C(=N/C(=O)/C(C)=C\C=C\C(C)C(O)C(C)C(O)C(C)C(OC(C)=O)C1C)C4=O (configuration not stated) | – | – | – | MIC (Escherichia coli [1]): Active
COC1/C=C/OC2(C)Oc3c(C)c(O)c4c(c3C2O)C(=O)C=C(NC(=O)/C(C)=C\C=C\C(C)C(OC(C)=O)C(C)C(O)C(C)C(OC(C)=O)C1C)C4=O (configuration not stated) | – | Not Active | inactive | –
COc1c(C)c2c3c4c(O)cc5c(c14)OC(N5)/C(C)=C\C=C\C(C)C(O)C(C)C(O)C(C)C(OC(C)=O)C(C)C(OC)/C=C/OC(C)(O2)C3=O (configuration not stated) | – | Not Active | inactive | –
COC1/C=C/OC2(C)Oc3c(C)c(O)c4c(c3C2O)C(=O)C=C(NC(=O)/C(C)=C\C=C\C(C)C2OC(C)(C)OC(C(C)C(O)C1C)C2C)C4=O (configuration not stated) | – | Not Active | inactive | –
COC1/C=C/OC2(C)Oc3c(C)c(O)c4c(c3C2=O)C2(C=C(NC(=O)/C(C)=C\C=C\C(C)C(O)C(C)C(O)C(C)C(OC(C)=O)C1C)C4=O)OCC(=O)O2 (configuration not stated) | – | – | – | MIC (Escherichia coli [3]; [6]): 75 µg/mL (≈ 99.5 µM)
CO[C@H]1/C=C/O[C@@]2(C)Oc3c(C)c(O)c4c(O)c(cc(O)c4c3C2=O)NC(=O)/C(C)=C\C=C\[C@H](C)[C@H](O)[C@@H](C)[C@@H](O)[C@@H](C)[C@H](OC(C)=O)[C@@H]1C (stereo in doubt; form 2) [RIFAMYCIN] | 85 nM/unit | – | – | MIC (Escherichia coli [3]): 25 µg/mL (≈ 35.8 µM)
COC1/C=C/OC2(C)Oc3c(C)c(O)c4c(c3C2=O)C(=O)C=C(NC(=O)C(C)CCCC(C)C(O)C(C)C(O)C(C)C(OC(C)=O)C1C)C4=O (configuration not stated) | 1600 nM/unit | – | – | –
CCN(CC)c1nc2c(s1)c1c(O)c3c(O)c(C)c4c(c32)C(=O)[C@@](C)(O/C=C/[C@H](OC)[C@@H](C)[C@@H](OC(C)=O)[C@H](C)[C@H](O)[C@H](C)[C@@H](O)[C@@H](C)/C=C/C=C(/C)C(=O)N1)O4 [RIFAMEXIL] | – | – | – | MIC (Escherichia coli [3]; [6]): 32 µg/mL (≈ 39.5 µM)
COC1/C=C/C2OC3(C)C4c5c(c(C)c(O)c6c5C(=O)C=C(NC(=O)/C(C)=C\C=C\C(C)C5OC(C)(C)OC(C(C)C(O)C1C)C5C)C6=O)OC43O2 (configuration not stated) | – | Not Active | inactive | –
COC1/C=C/OC2(C)Oc3c(C)c(O)c4c(O)c(cc(OCC(=O)Nc5ccc(I)cc5)c4c3C2=O)NC(=O)/C(C)=C\C=C\C(C)(O)C(=O)C(C)C(O)C(C)C(OC(C)=O)C1C (configuration not stated) | – | Not Active | inactive | –
CO[C@H]1/C=C/O[C@@]2(C)Oc3c(C)c(O)c4c(O)c(c(/C=N/N5CCN(C)CC5)c(O)c4c3C2=O)NC(=O)/C(C)=C\C=C\[C@H](C)[C@H](O)[C@@H](C)[C@@H](O)[C@@H](C)[C@H](OC(C)=O)[C@@H]1C [RIFAMPIN] | – | – | – | MIC (Escherichia coli [3]; [6]): 20 µg/mL (≈ 24.3 µM)
CO[C@H]1/C=C/O[C@@]2(C)Oc3c(C)c(O)c4c(O)c(cc(O)c4c3C2=O)NC(=O)/C(C)=C\C=C\[C@H](C)[C@H](O)[C@@H](C)[C@@H](O)[C@@H](C)[C@H](OC(C)=O)[C@@H]1C (stereo in doubt; form 1) [RIFAMYCIN] | 15 nM/unit | – | – | MIC (Escherichia coli [3]): 3 µg/mL (≈ 4.3 µM)

Now from value to compound, other results behind:

IC50 (Nucleic Acid [2]) | IC50 (Nucleic Acid [4]) | MIC (Escherichia coli [5]) | SMILES | also measured
50 nM/unit | – | – | COC1/C=C/OC2(C)Oc3c(C)c(O)c4c(c3C2=O)C(=O)C=C(NC(=O)/C(C)=C\C=C\C(C)C(O)C(C)C(O)C(C)C(OC(C)=O)C1C)C4=O (configuration not stated) | MIC (Escherichia coli [3]; [6]): 12 µg/mL (≈ 17.2 µM)
20 nM/unit | – | – | COC(=O)C1=C2NC(=O)/C(C)=C\C=C\C(C)C(O)C(C)C(O)C(C)C(OC(C)=O)C(C)C(OC)/C=C/OC3(C)Oc4c(C)c(O)c(c(c4C3=O)C1=O)C2=O (configuration not stated) | –
– | Not Active | – | COC1=N\C2=CC(=O)c3c(c(O)c(C)c4c3C(=O)C(C)(O/C=C/C(OC)C(C)C(OC(C)=O)C(C)C(O)C(C)C(O)C(C)/C=C/C=C\1C)O4)C2=O (configuration not stated) | –
– | Not Active | inactive | COC1/C=C/OC2(C)Oc3c(C)c(O)c4c(c3C2=O)C(=O)C=C(NC(=O)/C(C)=C\C(=O)C2CC2C(O)C(C)C(O)C(C)C(OC(C)=O)C1C)C4=O (configuration not stated) [TOLYPOMYCINONE] | –
– | – | inactive | COC1=N/C2=CC(=O)c3c(c(O)c(C)c4c3C(=O)C(C)(O/C=C/C(OC)C(C)C(OC(C)=O)C(C)C(O)C(C)C(O)C(C)\C=C/C=C\1C)O4)C2=O (configuration not stated) | –
50 nM/unit | – | – | COC1/C=C/OC2(C)Oc3c(C)c(O)c4c(c3C2O)C(=O)C=C(NC(=O)/C(C)=C\C=C\C(C)C(O)C(C)C(O)C(C)C(OC(C)=O)C1C)C4=O (configuration not stated) | –
